# From patent US8779144B2, “Bicycloheteroaryl compounds as P2X7 modulators and uses thereof” (Evotec (US) Inc., priority 2006, dated 2014)
# Legend:
# [1] = test system: IL-1β release from THP-1 cells; test: IL-1β release assay in differentiated THP-1 cells stimulated with BzATP (ELISA); type: cell-based; conditions: Homo sapiens; for inhibition at 0.3 µM: 0.3 uM compound, BzATP 250 uM, read-out: IL-1β % Inhib. @ 0.3 uM.; for IC50: released IL-1β as in Example 9, four parameter logistic fit, read-out: IL-Iβ IC50
# Method: THP-1 cells (ATCC Cat #285-IF-100) are plated in 96 well plates at a concentration of 200,000 cells per well and allowed to differentiate in RPMI-1640 media (ATCC Cat #30-2001) containing 10% FBS, 100 IU/mL penicillin, 100 ug/mL streptomycin, 100 ng/mL LPS and 100 ng/mL IFN-γ for 16 hours. Following differentiation, the cells are treated for an additional 2 hours in RPMI-1640 media containing 100 IU/mL penicillin, 100 ug/mL streptomycin and fresh LPS at 100 ng/mL. The cells are then pretreated for 30 minutes with the compound of interest at the appropriate concentration in RPMI media containing 100 IU/mL penicillin, 100 ug/mL streptomycin. Following the pretreatment 2′,3′-O-(4-benzoylbenzoyl)-adenosine 5′-triphosphate (Sigma Aldrich Cat # B6396) is added to a final concentration of 250 uM and the cells are incubated for an additional 45 minutes. 30 uL of cell supernatant is then collected and IL-113 levels determined via ELISA (R&D systems Cat. # HSLB50) according to manufacturer's recommendations using the Tecan Safire plate reader. Background adjusted IL-1β levels of drug treated and non-treated cells are used to calculate the percent inhibition. […]
# The compounds set forth in Table 1 were tested for activity in a cellular model as described herein. Specifically, cells were pretreated with differing amounts of the compound under test and released IL-1β determined as in Example 9, above. Measurements were made and IC50 values, presented in Table 2, below, were determined by fitting the data to a four parameter logistic equation using GraphPad Prism software (GraphPad Software, Inc). The equation may be expressed by the following formula: Y=Bottom+(Top−Bottom)/(1+10^((LogEC50−X)*HillSlope)) Where X is the logarithm of concentration, Y is the response and Y starts at Bottom and goes to Top with a sigmoid shape.
# [2] = Half-life in human liver microsomes (HLM); type: in vitro ADME; conditions: 1 μM compound, 0.78 mg/mL HLM, NADPH, pH 7.4, 37° C.
# Method: Test compounds (1 μM) are incubated with 3.3 mM MgCl2 and 0.78 mg/mL HLM (HL101) in 100 mM potassium phosphate buffer (pH 7.4) at 37° C. on the 96-deep well plate. The reaction mixture is split into two groups, a non-P450 and a P450 group. NADPH is only added to the reaction mixture of the P450 group. An aliquot of samples of P450 group is collected at 0, 10, 30, and 60 min time point, where 0 min time point indicated the time when NADPH is added into the reaction mixture of P450 group. An aliquot of samples of non-P450 group is collected at −10 and 65 min time point. Collected aliquots are extracted with acetonitrile solution containing an internal standard. The precipitated protein is spun down in centrifuge (2000 rpm, 15 min). The compound concentration in supernatant is measured by LC/MS/MS system.
# The half-life value is obtained by plotting the natural logarithm of the peak area ratio of compounds/internal standard versus time. The slope of the line of best fit through the points yields the rate of metabolism (k). This is converted to a half-life value using following equations: Half-life=ln 2/k
IC50 [1],half-life at 1 μM [2],SMILES,inhibition at 0.3 µM [1]
326 nM,42.6 min,"O=C(NCC1(O)CCCCCC1)c1cccc2c(=O)n(CCO)ccc12 [Compound 2048, 2-(2-Hydroxy-ethyl)-1-oxo-1,2-dihydro-isoquinoline-5-carboxylic acid (1-hydroxy-cycloheptylmethyl)-amide]",26 to 50%
7.46 nM,36 min,C[C@H](C(N)=O)n1ccc2c(C(=O)NCC3CCCCCC3)cccc2c1=O [Compound 2062],> 76%
5.66 nM,38.4 min,"CC(C)C(CO)n1ccc2c(C(=O)NCC3(O)CCCCCC3)cccc2c1=O (stereo not shown) [Compound 2035, 2-(1-Hydroxymethyl-2-methyl-propyl)-1-oxo-1,2-dihydro-isoquinoline-5-carboxylic acid (1-hydroxy-cycloheptylmethyl)-amide]",> 76%
54 nM,18 min,"O=C(NCC1CCCCCC1)c1cccc2c(=O)n(CCO)ccc12 [Compound 2041, 2-(2-Hydroxy-ethyl)-1-oxo-1,2-dihydro-isoquinoline-5-carboxylic acid cycloheptylmethyl-amide]",> 76%
> 1000 nM,–,COCC(O)Cn1ccc2c(C(=O)NCC3(O)CCCC(C)(C)C3)cccc2c1=O (stereo not shown) [Compound 2046],0 to 25%
152 nM,–,O=C(NCc1ccc(F)c(Cl)c1)c1cccc2c(=O)n(C3CC3)ccc12 [Compound 2073],> 76%
> 1000 nM,–,O=C(NCCc1ccccc1Cl)c1ncnc2c1CCN(Cc1ccccc1)C2 [Compound 2001],0 to 25%
> 1000 nM,–,C[C@H](NC(=O)c1cccc2c(=O)n([C@@H](C)C(N)=O)ccc12)c1ccc(Cl)cc1 [Compound 2066],0 to 25%
162 nM,–,O=C(NCc1cccc(C(F)(F)F)c1F)c1cccc2c(=O)n(C3CC3)ccc12 [Compound 2077],51 to 75%
> 1000 nM,–,Cn1ccc2c(C(=O)NCC3(O)CCCC(C)(C)C3)cccc2c1=O (stereo not shown) [Compound 2045],0 to 25%
77.4 nM,–,"C[C@@H](C(N)=O)n1ccc2c(C(=O)NCc3ccc(Cl)c(C(F)(F)F)c3)cccc2c1=O [Compound 2059, 2-((S)-1-Carbamoyl-ethyl)-1-oxo-1,2-dihydro-isoquinoline-5-carboxylic acid 4-chloro-3-trifluoromethyl-benzylamide]",> 76%
212 nM,–,C[C@H](CO)n1ccc2c(C(=O)NCc3ccc(C(F)(F)F)cc3)cccc2c1=O [Compound 2068],51 to 75%
606 nM,–,CC1(C)OCC(Cn2ccc3c(C(=O)NCC4CCCCCC4)cccc3c2=O)O1 (stereo not shown) [Compound 2038],0 to 25%
42 nM,–,"O=C(NCC1(O)CCCCCC1)c1cccc2c(=O)n(Cc3ccc(F)cc3)ccc12 [Compound 2031, 2-(4-Fluoro-benzyl)-1-oxo-1,2-dihydro-isoquinoline-5-carboxylic acid (1-hydroxy-cycloheptylmethyl)-amide]",> 76%
214 nM,–,C[C@@H](C(N)=O)n1ccc2c(C(=O)NCc3ccc(Cl)c(Cl)c3)cccc2c1=O [Compound 2061],51 to 75%
149 nM,–,Cc1ccc2c(c1C(=O)NCc1ccc(C(F)(F)F)c(F)c1)CCN(C(=O)C1CCC1)C2 [Compound 2081],> 76%
256 nM,–,CC1(C)CCCC(O)(CNC(=O)c2cccc3c(=O)n(CCO)ccc23)C1 (stereo not shown) [Compound 2051],51 to 75%
> 1000 nM,–,COCC(O)Cn1ccc2c(C(=O)NCC3CCCCCC3)cccc2c1=O (stereo not shown) [Compound 2044],0 to 25%
59.4 nM,–,O=C(NCc1ccc(Cl)c(C(F)(F)F)c1)c1cccc2c(=O)n(C3CC3)ccc12 [Compound 2078],> 76%
269 nM,–,O=C(NCC1CCCCC1)c1cccc2c(=O)n(C(CO)CO)ccc12 [Compound 2055],51 to 75%

# The next lines start with the compound.
SMILES,IC50 [1],half-life at 1 μM [2],inhibition at 0.3 µM [1]
O=C(NCC1CCCCCC1)c1cccc2c(=O)n(C(CO)CO)ccc12 [Compound 2040],39.2 nM,51 min,> 76%
O=C(NCC1CCCCC1)c1ncnc2c1CCN(Cc1ccc(Cl)cc1)C2 [Compound 2009],–,–,0 to 25%
CS(=O)(=O)c1ccc(CN2CCc3c(ncnc3C(=O)NCC3CCCCC3)C2)cc1 [Compound 2014],–,–,0 to 25%
O=C(NCC1CCCCC1)c1ncnc2c1CCN(Cc1ccncc1)C2 [Compound 2007],–,–,0 to 25%
CC1(C)CC(C)(C)CC(O)(CNC(=O)c2cccc3c(=O)n(C(CO)CO)ccc23)C1 [Compound 2054],233 nM,–,51 to 75%
O=C(NCC1CCCCC1)c1ncnc2c1CCN(Cc1cccnc1)C2 [Compound 2006],–,–,0 to 25%
"C[C@@H](C(N)=O)n1ccc2c(C(=O)NCC34CC5CC(CC(C5)C3)C4)cccc2c1=O [Compound 2065, 2-((S)-1-Carbamoyl-ethyl)-1-oxo-1,2-dihydro-isoquinoline-5-carboxylic acid (adamantan-1-ylmethyl)-amide]",0.44 nM,–,> 76%
O=C(NCC12CC3CC(CC(C3)C1)C2)c1ncnc2c1CCN(Cc1ccccc1Cl)C2 [Compound 2025],–,–,26 to 50%
O=C(NCC1CCCCC1)c1ncnc2c1CCN(Cc1ccccn1)C2 [Compound 2010],–,–,0 to 25%
"O=C(NCC1CCCCCC1)c1cccc2c(=O)n(CC(O)CO)ccc12 (stereo not shown) [Compound 2039, 2-(2,3-Dihydroxy-propyl)-1-oxo-1,2-dihydro-isoquinoline-5-carboxylic acid cycloheptylmethyl-amide]",257 nM,–,51 to 75%
"O=C(NCc1ccc(Cl)c(Cl)c1)c1cccc2c(=O)n(C3CC3)ccc12 [Compound 2072, 2-Cyclopropyl-1-oxo-1,2-dihydro-isoquinoline-5-carboxylic acid 3,4-dichloro-benzylamide]",59.2 nM,–,> 76%
CC1(C)CCCC(O)(CNC(=O)c2ncnc3c2CCN(Cc2ccccc2)C3)C1 (stereo not shown) [Compound 2017],–,–,0 to 25%
"C[C@H](C(N)=O)n1ccc2c(C(=O)NCc3ccc(Cl)c(C(F)(F)F)c3)cccc2c1=O [Compound 2058, 2-((R)-1-Carbamoyl-ethyl)-1-oxo-1,2-dihydro-isoquinoline-5-carboxylic acid 4-chloro-3-trifluoromethyl-benzylamide]",21 nM,–,> 76%
"O=C(NCc1ccc(Cl)c(C(F)(F)F)c1)c1cccc2c(=O)n(C(CO)CO)ccc12 [Compound 2053, 2-(2-Hydroxy-1-hydroxymethyl-ethyl)-1-oxo-1,2-dihydro-isoquinoline-5-carboxylic acid 4-chloro-3-trifluoromethyl-benzylamide]",40.4 nM,–,> 76%
Cc1ccc2c(c1C(=O)NCc1ccc(C(F)(F)F)c(F)c1)CCN(C(=O)C1(C)CC1)C2 [Compound 2082],667 nM,–,0 to 25%
O=C(NCc1ccc(C(F)(F)F)cc1)c1cccc2c(=O)n(C3CC3)ccc12 [Compound 2071],754 nM,–,0 to 25%
